Laboratory results published in US12564596B2, “Agents and methods for modulating pathogen activity” (Griffith University, priority 2018, dated 2026).

Experiments:
[1] = test system: N. gonorrhoeae strain MS11gfp adherence to CHO-CR3 cells; assay: Fluorometric adherence assay, gonococci to CHO cells; format: cell-based, Neisseria gonorrhoeae; details: 1 h post-challenge
Procedure: The ability of carbamazepine to block adherence of N. gonorrhoeae strain MS11gfp to CHO-neo or CHO-CR3 cells was evaluated using a fluorometric adherence assay. Assays were performed essentially as described by Jen et al (2013, PLoS Pathog. 9(5):e1003377). In this regard, CHO-neo or CHO-CR3 cells were seeded to a 96-well plate and allowed to grow to confluence. MS11gfp gonococci were then used to challenge (1 h) CHO cells simultaneously with, or without, various concentrations of carbamazepine (as noted). Fluorescence (485/528 nm) intensity, corresponding to bacterial adherence, was recorded using a Synergy HT Multi-mode Microplate Reader (BioTek Instruments, Winooski, VT USA). The assay was performed in triplicate on 3 separate occasions. A Kruskal-Wallis k-sample analysis of variance was used to determine the statistical significance of the calculated mean of bacterial adherence.
(§1) The ability of the compounds, or negative controls to block adherence of N. gonorrhoeae strain MS11gfp to PEX cells, CHO-CR3, or CHO-neo cells was evaluated using a fluorometric microtiter plate assay. Assays were performed essentially as described by Jen et al. (2013, Plos Pathog 9(5): e1003377). In this regard, GFP-expressing gonococci were used to challenge (1 h) PEX or CHO cells immediately following compound addition. Fluorescence (485/528 nm) intensity, corresponding to bacterial adherence, was recorded using a Synergy HT Multi-mode Microplate Reader (BioTek Instruments, Winooski, VT USA). Blank wells, devoid of PEX or CHO cells, also were inoculated with bacteria and served as a control for non-specific binding. The assay was performed in triplicate on 3 separate occasions. A Student's t-test was used to determine the statistical significance of the calculated mean of bacterial adherence.

[2] = test system: N. gonorrhoeae adherence to primary human cervical epithelial (PEX) cells; assay: Fluorometric adherence assay, gonococci to PEX cells; format: cell-based, Neisseria gonorrhoeae
Excerpt: Briefly, six N. gonorrhoeae strains were used in the experiments. These included the laboratory strain, MS11; the low-passage isolates, 1291, UT38097, LT38885, PID-26, and SK92-679; all of which were transformed with the green fluorescent protein (GFP) expression plasmid, pCmGFP (GenBank accession number FJ172221) Srikhanta et al (2009, PLoS Pathog. 5(4):e1000400) and, thus, expressed GFP Edwards et al (2000, Infect Immun 68(9):5354-63). […] The ability of carbamazepine to block the adherence of N. gonorrhoeae to human, primary cervical epithelial (PEX) cells was evaluated using a fluorometric adherence assay. Assays were performed essentially as described by Jen et al (2013, supra). In this regard, PEX cells were seeded to a 96-well plate and allowed to grow to confluence. Gonococci were then used to challenge (1 h) PEX cells simultaneously with, or without, various concentrations of carbamazepine ([…], 10 nM, 1 μM, or 100 μM, as noted) or 1% DMSO (vehicle control). Uninfected PEX cells treated with 1% DMSO served as a control for background fluorescence. Fluorescence (485/528 nm) intensity, corresponding to bacterial adherence, was recorded using a Synergy HT Multi-mode Microplate Reader (BioTek Instruments, Winooski, VT USA). The assay was performed in triplicate on 3 separate occasions. A Student's t-test was used to determine the statistical significance of the calculated mean of bacterial adherence.
as §1

[3] = test system: HIV strains NL4-3 and NLAD8 adherence to CHO-CR3 cells; assay: Fluorometric adherence assay, HIV to CHO cells; format: cell-based
Procedure: To test the ability of HIV to bind to CHO cells in a CR3 dependent fashion, and to test the ability of carbamazepine to block adherence of HIV to CHO-CR3 or CHO-neo cells, a fluorometric adherence assay was used, essentially as described by Jen et al (2013, supra). In this regard, CHO-neo or CHO-CR3 cells were seeded to a 96-well plate and allowed to grow to confluence. Fluorescently labelled HIV (10 ng of p24 HIV capsid protein equivalent of HIV in 100 μL of F12 culture media) were then used to challenge (2 h) CHO cells simultaneously with, or without, various concentrations of carbamazepine (as noted). Fluorescence (485/528 nm) intensity, corresponding to HIV cell adherence, was recorded using a Synergy HT Multi-mode Microplate Reader (BioTek Instruments, Winooski, VT USA). […] A Kruskal-Wallis k-sample analysis of variance was used to determine the statistical significance of the calculated mean of viral-cell adherence.
Having established the CR3-dependent binding of HIV to CHO cells, the inventors next examined the ability of carbamazepine to block the interaction of HIV strains NL4-3 and NLAD8 with the CR3 I-domain using fluorometric adherence assays. CR3-expressing (CHO-CR3) and non-expressing (CHO-neo) CHO cells, were seeded to microtiter plates, and HIV adherence was quantitated fluorometrically, as described by Jen et al. (2013, supra). […]

[4] = test system: HIV strains NL4-3 and NLAD8 adherence to human PEX cells; assay: Fluorometric adherence assay, HIV to PEX cells; format: cell-based; details: for decrease of cell association to PEX cells: 100 μM; for reduction in cell adherence to PEX cells: lowest concentration, printed 'down to 100 μM'
Procedure: The ability of carbamazepine to block adherence of HIV to human PEX cells was evaluated using a fluorometric adherence assay, essentially as described by Jen et al. (2013, supra). In this regard, PEX cells were seeded to a 96-well plate and allowed to grow to confluence. Fluorescently labelled HIV (10 ng of p24 HIV capsid protein equivalent of HIV in 100 μL of F12 culture media) were then used to challenge (2 h) PEX cells simultaneously with, or without, various concentrations of carbamazepine (as noted). Fluorescence (485/528 nm) intensity, corresponding to HIV cell adherence, was recorded using a Synergy HT Multi-mode Microplate Reader (BioTek Instruments, Winooski, VT USA). The assay was performed in triplicate on 3 separate occasions. A Kruskal-Wallis k-sample analysis of variance was used to determine the statistical significance of the calculated mean of viral-cell adherence.

Which “gonococcal adherence to CHO-CR3 cells compared with CHO-neo cells” value ([1]; 1 μM) does the source give for NC(=O)N1c2ccccc2C=Cc2ccccc21 [carbamazepine, 5H-dibenzo[b,f]azepine-5-carboxamide] here?
The value was “not significantly different than that recorded for CHO-neo cells”.

And the “gonococcal adherence to CHO-CR3, but not CHO-neo, cells with increasing concentrations” value [1]?
The value was “dose-dependent decrease”.

What about the “gonococcal adherence to PEX cells with increasing concentrations” value ([2]; 1 h post-challenge) of the same molecule?
The value was “dose-dependent decrease”.

What about the inhibition at 1 µM ([2]; Neisseria gonorrhoeae, 1 h, read-out: inhibition of adherence to PEX cells) of the same molecule?
The inhibition at 1 µM was > 95%.

And the “HIV adherence to CHO-CR3 cells compared with CHO-neo cells” value ([3]; 1 μM, 2 h post-challenge)?
Its value is “not significantly different than that recorded for CHO-neo cells”.

What about the “HIV adherence to CHO-CR3, but not CHO-neo, cells with increasing concentrations” value ([3]; 2 h) of the same molecule?
The value was “dose-dependent decrease”.

And the “decrease of cell association to PEX cells” value ([4]; NL4-3, 2 h)?
Its value is 88.53%±0.37.

What about the “reduction in cell adherence to PEX cells” value ([4]; NL4-3) of the same molecule?
Its value is 59.65%±0.41.

What about the “HIV adherence to PEX cells with increasing concentrations” value ([4]; NL4-3 and NLAD8, 2 h) of the same molecule?
Its value is “dose-dependent decrease”.

And the “decrease of cell association to PEX cells” value ([4]; NLAD8, 2 h)?
Its value is 87.98%±0.48.

What about the “reduction in cell adherence to PEX cells” value ([4]; NLAD8) of the same molecule?
Its value is 59.65%±0.24.
